Results: ChEMBL document CHEMBL1128852, “Butyrophenone analogues: Synthesis of 2-methyl-3-ethyl-5-aminoethyl-4,5,6,7-tetrahydroindol-4-ones, and their affinities for d1, d2 and 5-ht2a receptors” (Bioorg Med Chem Lett, 1995)

How the values were obtained:
[1] = target: 5-hydroxytryptamine receptor 2A (Rattus norvegicus, UniProt P14842); experiment: Inhibition constant for in vitro inhibition of [3H]ketanserin binding to rat frontal cortex membranes 5-hydroxytryptamine 2A receptor; assay type: cell membranes, Membrane
D(2) dopamine receptor = D(2) dopamine receptor (Rattus norvegicus, UniProt P61169); experiment: Inhibition constant for in vitro inhibition of [3H]spiperone binding to striatal membranes Dopamine receptor D2
D(1A) dopamine receptor = D(1A) dopamine receptor (Rattus norvegicus, UniProt P18901); experiment: Inhibition constant for in vitro inhibition of [3H]-SCH- 23390 binding to striatal membranes Dopamine receptor D1; design: species or system Striatum, Membrane
Rattus norvegicus [2] = species on record: Rattus norvegicus; experiment: (§1) Competitive antagonism against serotonin-induced contractions in rat aorta ring stripped of endothelium; assay type: functional; details: read-out: pA2 (converted)
Rattus norvegicus [3] = species on record: Rattus norvegicus; experiment: as §1; details: read-out: pA2 (converted)

D(1A) dopamine receptor, sequence (P18901 whole entry): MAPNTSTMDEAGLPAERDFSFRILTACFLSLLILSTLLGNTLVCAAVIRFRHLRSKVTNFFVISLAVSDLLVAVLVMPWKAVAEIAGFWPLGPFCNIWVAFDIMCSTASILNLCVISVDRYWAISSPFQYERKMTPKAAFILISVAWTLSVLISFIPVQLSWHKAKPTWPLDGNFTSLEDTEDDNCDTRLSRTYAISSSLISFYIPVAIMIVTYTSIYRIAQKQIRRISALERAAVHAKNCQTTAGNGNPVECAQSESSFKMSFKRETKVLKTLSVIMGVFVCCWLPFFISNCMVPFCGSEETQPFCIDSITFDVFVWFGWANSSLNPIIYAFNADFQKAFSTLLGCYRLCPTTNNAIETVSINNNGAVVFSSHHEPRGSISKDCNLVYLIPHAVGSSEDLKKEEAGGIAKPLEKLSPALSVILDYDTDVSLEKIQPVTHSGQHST
D(2) dopamine receptor, sequence (P61169 whole entry): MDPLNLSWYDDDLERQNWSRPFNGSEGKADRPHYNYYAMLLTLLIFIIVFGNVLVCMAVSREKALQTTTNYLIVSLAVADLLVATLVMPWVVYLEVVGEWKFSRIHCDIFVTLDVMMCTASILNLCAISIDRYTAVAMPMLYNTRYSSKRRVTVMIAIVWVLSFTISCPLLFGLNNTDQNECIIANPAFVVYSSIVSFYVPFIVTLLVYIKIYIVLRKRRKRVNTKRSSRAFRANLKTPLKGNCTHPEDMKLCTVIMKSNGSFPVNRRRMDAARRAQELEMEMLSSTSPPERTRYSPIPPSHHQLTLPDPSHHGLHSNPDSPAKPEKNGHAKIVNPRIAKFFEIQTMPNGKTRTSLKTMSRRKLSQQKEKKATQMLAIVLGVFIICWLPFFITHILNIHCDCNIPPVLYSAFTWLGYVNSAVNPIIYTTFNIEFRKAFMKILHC
5-hydroxytryptamine receptor 2A, sequence (P14842 whole entry): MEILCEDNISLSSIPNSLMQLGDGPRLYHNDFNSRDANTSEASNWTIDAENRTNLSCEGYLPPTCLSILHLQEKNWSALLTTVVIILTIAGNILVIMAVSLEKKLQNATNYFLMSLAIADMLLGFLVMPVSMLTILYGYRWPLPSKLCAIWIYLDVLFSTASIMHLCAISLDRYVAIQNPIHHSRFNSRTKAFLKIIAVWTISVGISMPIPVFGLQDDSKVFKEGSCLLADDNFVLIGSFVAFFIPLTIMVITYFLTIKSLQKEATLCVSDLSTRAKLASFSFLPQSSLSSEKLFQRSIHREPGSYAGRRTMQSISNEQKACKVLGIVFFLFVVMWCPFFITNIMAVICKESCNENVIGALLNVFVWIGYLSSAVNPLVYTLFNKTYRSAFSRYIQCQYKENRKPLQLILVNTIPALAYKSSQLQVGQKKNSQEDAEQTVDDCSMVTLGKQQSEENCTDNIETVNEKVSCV

| SMILES | Ki [1] | Ki (D(2) dopamine receptor) | Ki (D(1A) dopamine receptor) | Kb (Rattus norvegicus [2]) | Kb (Rattus norvegicus [3]) |
| --- | --- | --- | --- | --- | --- |
| CCc1c(C)[nH]c2c1C(=O)C(CCN1CCN(c3ccccc3OC)CC1)CC2 (centres undefined) | 91.2 nM | 28.2 nM | 1170 nM | 31.6 nM | – |
| CCc1c(C)[nH]c2c1C(=O)C(CCN1CCOCC1)CC2 (centres undefined) | 912 nM | 589 nM | 2140 nM | – | 105 nM |
| CCc1c(C)[nH]c2c1C(=O)C(CN1CCOCC1)CC2 (centres undefined) [MOLINDONE] | – | – | 1580 nM | – | – |
